Measurements taken from US12427144B2, “Compounds and methods for the targeted degradation of androgen receptor” (Arvinas Operations, Inc., priority 2019, dated 2025).

Molecular target: T1, Androgen Receptor (AR) (Homo sapiens, UniProt P10275)
T1 construct: endogenous in cells; host or cells: VCaP
T1 sequence (P10275 1-920): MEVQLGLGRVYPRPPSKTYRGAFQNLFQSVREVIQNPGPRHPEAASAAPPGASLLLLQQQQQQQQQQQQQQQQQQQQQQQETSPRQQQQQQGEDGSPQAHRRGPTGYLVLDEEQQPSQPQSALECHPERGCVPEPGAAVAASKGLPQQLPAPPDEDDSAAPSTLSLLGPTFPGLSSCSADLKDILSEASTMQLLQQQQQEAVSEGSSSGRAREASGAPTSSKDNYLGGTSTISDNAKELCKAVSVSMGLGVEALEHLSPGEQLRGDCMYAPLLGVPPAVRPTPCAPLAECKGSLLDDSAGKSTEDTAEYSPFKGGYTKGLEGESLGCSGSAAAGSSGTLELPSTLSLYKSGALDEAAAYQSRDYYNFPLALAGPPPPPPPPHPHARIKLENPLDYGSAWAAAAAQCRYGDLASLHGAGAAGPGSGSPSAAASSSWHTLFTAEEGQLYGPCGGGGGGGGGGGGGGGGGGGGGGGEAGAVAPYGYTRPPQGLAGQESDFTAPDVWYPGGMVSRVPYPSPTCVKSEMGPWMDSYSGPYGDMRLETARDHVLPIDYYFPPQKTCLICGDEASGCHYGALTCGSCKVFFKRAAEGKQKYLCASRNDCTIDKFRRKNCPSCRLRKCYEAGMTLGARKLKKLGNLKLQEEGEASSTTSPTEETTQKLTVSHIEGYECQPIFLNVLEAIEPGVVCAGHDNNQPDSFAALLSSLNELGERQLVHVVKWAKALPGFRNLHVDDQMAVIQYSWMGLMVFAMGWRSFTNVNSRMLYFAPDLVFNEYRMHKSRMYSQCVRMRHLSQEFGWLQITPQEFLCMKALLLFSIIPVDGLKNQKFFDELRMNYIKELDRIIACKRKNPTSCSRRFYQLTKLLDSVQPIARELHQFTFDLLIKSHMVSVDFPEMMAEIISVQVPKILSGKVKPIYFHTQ
Assay: AR immunofluorescence staining, high content imager, VCaP cells
Format: cell-based
Conditions: for DC50: AR degradation by immunofluorescence; for Dmax: maximal AR degradation
Experimental: AR Immunofluorescence Staining of Cells for the High Content Imager was performed as follows: Following treatment of the cells with compound (using the central 60 wells of a 96-well plate), media was removed by aspiration, followed by addition of 50 μL per well of 4% paraformaldehyde (PFA) in PBS supplemented with 2 mM MgCl2 and 2 mM CaCl2. Fixed cells were incubated at RT for 15 minutes. For particularly low adherence cell lines (e.g., VCaP), a 2× solution of 8% PFA was added directly to wells instead. Cells were washed once with 200 μL PBS/well. To permeabilize cells 50 μL/well of 0.1% Triton X-100 in PBS was added and incubated for 5 minutes. Cells were washed once with 200 μL PBSS/well. 100 μL/well of Licor Odyssey Blocking Buffer was added for 1 hour at 20° C. Wells were aspirated and AR antibody (1:1000 in Licor Odyssey blocking buffer; 50 μL/well; CST 5153s) was added. Plates were incubated overnight at 4° C. Plates were washed 3 times with 200 EL PBS/well. The appropriate secondary antibody was added (50 μL/well; diluted in Licor Odyssey blocking buffer) and incubated for 1 hour at RT in the dark as prepared below using Anti-rabbit FITC (1:5000; […]) and Phalloidin-Alexafluor 648 (1:500; […]). Cells were washed once with 200 μL PBS/well. 50 μL DAPI or Hoechst 33342 diluted 1:1000 in Licor Odyssey blocking buffer was added to the wells. Cells were washed 3 times with 200 μL PBS/well. The plates were covered with a clear plastic sealer and refrigerated in the dark until ready to analyze. The cells were analyzed using a Molecular Devices IXM high content imager and analyzed using Molecular Devices metaXpress software suite.

CN(C(=O)c1ccc(N2CCN(CC3CCN(c4ccc(C(=O)N[C@H]5CC[C@H](Oc6ccc(C#N)c(Cl)c6)CC5)nn4)CC3)CC2)cc1F)C1CCC(=O)NC1=O (stereo partly drawn) [Compound 31, N-((1R,4R)-4-(3-chloro-4-cyanophenoxy)cyclohexyl)-6-(4-((4-(4-((2,6-dioxopiperidin-3-yl)(methyl)carbamoyl)-3-fluorophenyl)piperazin-1-yl)methyl)piperidin-1-yl)pyridazine-3-carboxamide]
DC50: < 1 nM | Dmax: 50 to 70%

Cc1cc(O[C@H]2C(C)(C)[C@H](NC(=O)c3ccc(N4CCC(O[C@H]5C[C@H](Oc6ccc(C(=O)N[C@H]7CCC(=O)NC7=O)c(F)c6)C5)CC4)cc3)C2(C)C)cc(C)c1C#N [Compound 73, N-[(1r,3r)-3-(4-cyano-3,5-dimethylphenoxy)-2,2,4,4-tetramethylcyclobutyl]-4-{4-[(1r,3r)-3-(4-{[(3S)-2,6-dioxopiperidin-3-yl]carbamoyl}-3-fluorophenoxy)cyclobutoxy]piperidin-1-yl}benzamide]
DC50: 1 to 10 nM | Dmax: < 50%

COc1cc(C(=O)NC2CCC(=O)NC2=O)ccc1N1CCN(C[C@H]2CN(c3ccc(C(=O)N[C@H]4C(C)(C)[C@H](Oc5cc(C)c(C#N)c(C)c5)C4(C)C)cc3)CCO2)CC1 (stereo partly drawn) [Compound 56, N-(2,6-dioxopiperidin-3-yl)-3-methoxy-4-(4-{[(2S)-4-(4-{[(1r,3r)-3-(4-cyano-3,5-dimethylphenoxy)-2,2,4,4-tetramethylcyclobutyl]carbamoyl}phenyl)morpholin-2-yl]methyl}piperazin-1-yl)benzamide]
DC50: < 1 nM | Dmax: ≥ 70%

COc1cc(O[C@H]2C(C)(C)[C@H](NC(=O)c3ccc(N4CCC(O[C@H]5C[C@H](Oc6ccc(C(=O)NC7CCC(=O)NC7=O)c(OC)c6)C5)CC4)cc3)C2(C)C)ccc1C#N (stereo partly shown) [Compound 54, N-[(1r,3r)-3-(4-cyano-3-methoxyphenoxy)-2,2,4,4-tetramethylcyclobutyl]-4-{4-[(1r,3r)-3-{4-[(2,6-dioxopiperidin-3-yl)carbamoyl]-3-methoxyphenoxy}cyclobutoxy]piperidin-1-yl}benzamide]
DC50: < 1 nM | Dmax: ≥ 70%

CC1(C)[C@H](NC(=O)c2ccc(N3CCC(CN4CCN(c5ccc(C(=O)NC6CCC(=O)NC6=O)c(F)c5)CC4)CC3)nn2)C(C)(C)[C@H]1Oc1ccc(C#N)c(Cl)c1 (stereo partly drawn) [Compound 17, N-((1R,3R)-3-(3-chloro-4-cyanophenoxy)-2,2,4,4-tetramethylcyclobutyl)-6-(4-((4-(4-((2,6-dioxopiperidin-3-yl)carbamoyl)-3-fluorophenyl)piperazin-1-yl)methyl)piperidin-1-yl)pyridazine-3-carboxamide]
DC50: < 1 nM | Dmax: 50 to 70%

COc1cc(O[C@H]2C(C)(C)[C@H](NC(=O)c3ccc(N4CCC5(CC4)CN([C@H]4C[C@H](Oc6ccc(C(=O)N[C@H]7CCC(=O)NC7=O)c(OC)c6)C4)CCO5)cc3)C2(C)C)ccc1C#N [Compound 34, 4-[3-[9-[4-[[3-(4-cyano-3-methoxy-phenoxy)-2,2,4,4-tetramethyl-cyclobutyl]carbamoyl]phenyl]-1-oxa-4,9-diazaspiro[5.5]undecan-4-yl]cyclobutoxy]-N-[(3S)-2,6-dioxo-3-piperidyl]-2-methoxy-benzamide]
DC50: < 1 nM | Dmax: ≥ 70%

COc1cc(O[C@H]2C(C)(C)[C@H](NC(=O)c3ccc(N4CCC(CN5CCN(c6ccc(C(=O)NC7CCC(=O)NC7=O)cc6OC)CC5)CC4)cc3)C2(C)C)ccc1C#N (stereo partly shown) [Compound 60, N-(2,6-dioxopiperidin-3-yl)-3-methoxy-4-(4-{[1-(4-{[(1r,3r)-3-(4-cyano-3-methoxyphenoxy)-2,2,4,4-tetramethylcyclobutyl]carbamoyl}phenyl)piperidin-4-yl]methyl}piperazin-1-yl)benzamide]
DC50: < 1 nM | Dmax: ≥ 70%

Cc1cc(O[C@H]2C(C)(C)[C@H](NC(=O)c3ccc(N4CCO[C@@H](CN5CCN(c6ccc(C(=O)N[C@@H]7CCC(=O)NC7=O)c(F)c6)CC5)C4)cc3)C2(C)C)cc(C)c1C#N [Compound 75, N-[(3R)-2,6-dioxopiperidin-3-yl]-2-fluoro-4-(4-{[(2S)-4-(4-{[(1r,3r)-3-(4-cyano-3,5-dimethylphenoxy)-2,2,4,4-tetramethylcyclobutyl]carbamoyl}phenyl)morpholin-2-yl]methyl}piperazin-1-yl)benzamide]
DC50: 1 to 10 nM | Dmax: < 50%

COc1cc(O[C@H]2C(C)(C)[C@H](NC(=O)c3ccc(N4CCC(CN5CCN(c6ccc(F)c(C(=O)N[C@H]7CCC(=O)NC7=O)c6)CC5)CC4)cc3)C2(C)C)ccc1C#N [Compound 69, N-[(3S)-2,6-dioxopiperidin-3-yl]-2-fluoro-5-(4-{[1-(4-{[(1r,3r)-3-(4-cyano-3-methoxyphenoxy)-2,2,4,4-tetramethylcyclobutyl]carbamoyl}phenyl)piperidin-4-yl]methyl}piperazin-1-yl)benzamide]
DC50: 10 to 100 nM | Dmax: ≥ 70%

Cc1cc(O[C@H]2C(C)(C)[C@H](NC(=O)c3ccc(N4CCO[C@H](CN5CCN(c6ccc(C(=O)N[C@@H]7CCC(=O)NC7=O)c(F)c6)CC5)C4)cc3)C2(C)C)cc(C)c1C#N (single isomer, unassigned) [Compound 49]
DC50: < 1 nM | Dmax: ≥ 70%

COCCN(C[C@H]1CN(c2ccc(C(=O)N[C@H]3C(C)(C)[C@@H](Oc4cc(C)c(C#N)c(C)c4)C3(C)C)cc2)CCO1)[C@H]1C[C@H](Oc2ccc(C(=O)N[C@@H]3CCC(=O)NC3=O)c(F)c2)C1 [Compound 51, 4-[(2S)-2-{[(2-methoxyethyl)[(1r,3r)-3-(4-{[(3R)-2,6-dioxopiperidin-3-yl]carbamoyl}-3-fluorophenoxy)cyclobutyl]amino]methyl}morpholin-4-yl]-N-[(1r,3r)-3-(4-cyano-3,5-dimethylphenoxy)-2,2,4,4-tetramethylcyclobutyl]benzamide]
DC50: < 1 nM | Dmax: ≥ 70%

COc1cc(O[C@H]2C[C@H](OC3CCN(c4ccc(C(=O)N[C@H]5C(C)(C)[C@H](Oc6cc(C)c(C#N)c(C)c6)C5(C)C)cc4)CC3)C2)ccc1C(=O)NC1CCC(=O)NC1=O (stereo partly shown) [Compound 55, N-(2,6-dioxopiperidin-3-yl)-2-methoxy-4-[(1r,3r)-3-{[1-(4-{[(1r,3r)-3-(4-cyano-3,5-dimethylphenoxy)-2,2,4,4-tetramethylcyclobutyl]carbamoyl}phenyl)piperidin-4-yl]oxy}cyclobutoxy]benzamide]
DC50: < 1 nM | Dmax: ≥ 70%

CC(C)N(CC1CCN(c2cnc(C(=O)N[C@H]3CC[C@H](Oc4ccc(C#N)c(Cl)c4)CC3)cn2)CC1)[C@H]1C[C@H](Oc2ccc(C(=O)NC3CCC(=O)NC3=O)nc2)C1 (stereo partly shown) [Compound 24, N-[4-(3-chloro-4-cyano-phenoxy)cyclohexyl]-5-[4-[[[3-[[6-[(2,6-dioxo-3-piperidyl)carbamoyl]-3-pyridyl]oxy]cyclobutyl]-isopropyl-amino]methyl]-1-piperidyl]pyrazine-2-carboxamide]
DC50: < 1 nM | Dmax: ≥ 70%

CC1(C)[C@H](NC(=O)c2ccc(N3CCC(CN4CCN(c5ccc(C(=O)NC6CCC(=O)NC6=O)c(F)c5)CC4)CC3)cc2)C(C)(C)[C@H]1Oc1ccc(C#N)c(Cl)c1 (stereo partly drawn) [Compound 19, 4-(4-((1-(4-(((1R,3R)-3-(3-chloro-4-cyanophenoxy)-2,2,4,4-tetramethylcyclobutyl)carbamoyl)phenyl)piperidin-4-yl)methyl)piperazin-1-yl)-N-(2,6-dioxopiperidin-3-yl)-2-fluorobenzamide]
DC50: < 1 nM | Dmax: ≥ 70%
